Reference: patent US9580431B2, “Inhibitors of human immunodeficiency virus replication” (priority 2013, dated 2017)

tested on: recombinant NL-Rluc virus; experiment: microbe, parasite or virus in culture; assay type: cell-based, HIV; settings: Human immunodeficiency virus 1, MT2, 120 h, NL-RLuc virus infecting MT-2 cells, 5 days of incubation, luciferase readout; at least 2 experiments; serum condition not given; read-out: EC50

Row | Structure (SMILES) | EC50
1 | Cc1nc2cc(-c3nc(Cc4ccc(F)cc4)no3)nn2c(-c2cc(F)c3c(c2C)CCCO3)c1[C@H](OC(C)(C)C)C(=O)O [Example 7, (2S)-2-(tert-Butoxy)-2-(7-(8-fluoro-5-methylchroman-6-yl)-2-(3-(4-fluorobenzyl)-1,2,4-oxadiazol-5-yl)-5-methylpyrazolo[1,5-a]pyrimidin-6-yl)acetic acid] | 28 nM
2 | Cc1nc2cc(-c3nc4cc(-c5ccccc5)ccc4[nH]3)nn2c(-c2cc(F)c3c(c2C)CCCO3)c1[C@H](OC(C)(C)C)C(=O)O [Example 4, (2S)-2-(tert-Butoxy)-2-(7-(8-fluoro-5-methylchroman-6-yl)-5-methyl-2-(5-phenyl-1H-benzo[d]imidazol-2-yl)pyrazolo[1,5-a]pyrimidin-6-yl)acetic acid] | 133 nM
3 | C=CCOC1(C)CCN(c2c([C@H](OC(C)(C)C)C(=O)O)c(C)nc3cc(-c4cn(Cc5ccccc5)cn4)nn23)CC1 [Example 41, (S)-2-(7-(4-(Allyloxy)-4-methylpiperidin-1-yl)-2-(1-benzyl-1H-imidazol-4-yl)-5-methylpyrazolo[1,5-a]pyrimidin-6-yl)-2-(tert-butoxy)acetic acid] | 15 nM
4 | Cc1nc2cc(-c3ncc(Cc4ccc(F)cc4)s3)nn2c(C2=CCC(C)(C)CC2)c1[C@H](OC(C)(C)C)C(=O)O [Example 10, (S)-2-(tert-Butoxy)-2-(7-(4,4-dimethylcyclohex-1-en-1-yl)-2-(5-(4-fluorobenzyl)thiazol-2-yl)-5-methylpyrazolo[1,5-a]pyrimidin-6-yl)acetic acid] | 19 nM
5 | Cc1nc2cc(-c3ncc(C(C)c4ccc(F)cc4)s3)nn2c(N2CCC(C)(C)CC2)c1[C@H](OC(C)(C)C)C(=O)O (stereo partly drawn) [Example 14, (2S)-2-(tert-Butoxy)-2-(7-(4,4-dimethylpiperidin-1-yl)-2-(5-(1-(4-fluorophenyl)ethyl)thiazol-2-yl)-5-methylpyrazolo[1,5-a]pyrimidin-6-yl)acetic acid] | 27 nM
6 | C=CCOC1(C)CCN(c2c([C@H](OC(C)(C)C)C(=O)O)c(C)nc3cc(-c4cnn(Cc5ccccc5)c4)nn23)CC1 [Example 40, (S)-2-(7-(4-(Allyloxy)-4-methylpiperidin-1-yl)-2-(1-benzyl-1H-pyrazol-4-yl)-5-methylpyrazolo[1,5-a]pyrimidin-6-yl)-2-(tert-butoxy)acetic acid] | 11 nM
7 | Cc1nc2cc(-c3ncc(-c4cccc(F)c4)s3)nn2c(-c2cc(F)c3c(c2C)CCCO3)c1[C@H](OC(C)(C)C)C(=O)O [Example 9, (2S)-2-(tert-Butoxy)-2-(7-(8-fluoro-5-methylchroman-6-yl)-2-(5-(3-fluorophenyl)thiazol-2-yl)-5-methylpyrazolo[1,5-a]pyrimidin-6-yl)acetic acid] | 28 nM
8 | Cc1cc(Cc2cnc(-c3cc4nc(C)c([C@H](OC(C)(C)C)C(=O)O)c(N5CCC(C)(C)CC5)n4n3)s2)ccc1F [Example 15, (S)-2-(tert-Butoxy)-2-(7-(4,4-dimethylpiperidin-1-yl)-2-(5-(4-fluoro-3-methylbenzyl)thiazol-2-yl)-5-methylpyrazolo[1,5-a]pyrimidin-6-yl)acetic acid] | 19 nM
9 | COC1(C)CCN(c2c([C@H](OC(C)(C)C)C(=O)O)c(C)nc3cc(-c4ncc(Cc5ccc(F)cc5)s4)nn23)CC1 [Example 22, (S)-2-(tert-Butoxy)-2-(2-(5-(4-fluorobenzyl)thiazol-2-yl)-7-(4-methoxy-4-methylpiperidin-1-yl)-5-methylpyrazolo[1,5-a]pyrimidin-6-yl)acetic acid] | 12 nM
10 | Cc1nc2cc(-c3ncc(Cc4ccc(F)cc4)s3)nn2c(N2CCC(C)(C)CC2)c1[C@H](OC(C)(C)C)C(=O)O [Example 13, (S)-2-(tert-Butoxy)-2-(7-(4,4-dimethylpiperidin-1-yl)-2-(5-(4-fluorobenzyl)thiazol-2-yl)-5-methylpyrazolo[1,5-a]pyrimidin-6-yl)acetic acid] | 14 nM
11 | Cc1nc2cc(-n3nccc3Cc3ccccc3)nn2c(N2CCC(C)(C)CC2)c1[C@H](OC(C)(C)C)C(=O)O [Example 35, (S)-2-(2-(5 Benzyl-1H-pyrazol-1-yl)-7-(4,4-dimethylpiperidin-1-yl)-5-methylpyrazolo[1,5-a]pyrimidin-6-yl)-2-(tert-butoxy)acetic acid] | 573 nM
12 | Cc1nc2cc(-n3cnc(Cc4ccccc4)c3)nn2c(N2CCC(C)(C)CC2)c1[C@H](OC(C)(C)C)C(=O)O [Example 34, (S)-2-(2-(4-Benzyl-1H-imidazol-1-yl)-7-(4,4-dimethylpiperidin-1-yl)-5-methylpyrazolo[1,5-a]pyrimidin-6-yl)-2-(tert-butoxy)acetic acid] | 26 nM
13 | C=CCOc1ccccc1Cc1cnn(-c2cc3nc(C)c([C@H](OC(C)(C)C)C(=O)O)c(N4CCC(C)(OCC=C)CC4)n3n2)c1 [Example 37, (S)-2-(7-(4-(Allyloxy)-4-methylpiperidin-1-yl)-2-(4-(2-(allyloxy)benzyl)-1H -pyrazol-1-yl)-5-methylpyrazolo[1,5-a]pyrimidin-6-yl)-2-(tert-butoxy)acetic acid] | 11 nM
14 | Cc1nc2cc(-c3ncc(Cc4ccc(F)cc4)s3)nn2c(N2CC=C(c3ccccc3)CC2)c1[C@H](OC(C)(C)C)C(=O)O [Example 20, (S)-2-(tert-Butoxy)-2-(2-(5-(4-fluorobenzyl)thiazol-2-yl)-5-methyl-7-(4-phenyl-5,6-dihydropyridin-1(2H)-yl)pyrazolo[1,5-a]pyrimidin-6-yl)acetic acid] | 877 nM
15 | Cc1nc2cc(-c3ncc(-c4ccc(F)cc4)s3)nn2c(-c2cc(F)c3c(c2C)CCCO3)c1[C@H](OC(C)(C)C)C(=O)O [Example 8, (2S)-2-(tert-Butoxy)-2-(7-(8-fluoro-5-methylchroman-6-yl)-2-(5-(4-fluorophenyl)thiazol-2-yl)-5-methylpyrazolo[1,5-a]pyrimidin-6-yl)acetic acid] | 11 nM
16 | CCC1(C)CCN(c2c([C@H](OC(C)(C)C)C(=O)O)c(C)nc3cc(-c4ncc(Cc5ccc(F)cc5)s4)nn23)CC1 [Example 17, (S)-2-(tert-Butoxy)-2-(7-(4-ethyl-4-methylpiperidin-1-yl)-2-(5-(4-fluorobenzyl)thiazol-2-yl)-5-methylpyrazolo[1,5-a]pyrimidin-6-yl)acetic acid] | 13 nM
17 | Cc1nc2cc(-c3ncc(Cc4ccc(F)cc4)s3)nn2c(N2CCC(C)(CO)CC2)c1[C@H](OC(C)(C)C)C(=O)O [Example 21, (S)-2-(tert-Butoxy)-2-(2-(5-(4-fluorobenzyl)thiazol-2-yl)-7-(4-(hydroxymethyl)-4-methylpiperidin-1-yl)-5-methylpyrazolo[1,5-a]pyrimidin-6-yl)acetic acid] | 75 nM
18 | Cc1nc2cc(-c3nc4ccc(Cl)cc4n3C)nn2c(-c2cc(F)c3c(c2C)CCCO3)c1[C@H](OC(C)(C)C)C(=O)O [Example 3, (2S)-2-(tert-Butoxy)-2-(2-(6-chloro-1-methyl-1H-benzo[d]imidazol-2-yl)-7-(8-fluoro-5-methylchroman-6-yl)-5-methylpyrazolo[1,5-a]pyrimidin-6-yl)acetic acid] | 100 nM
19 | Cc1nc2cc(-c3ncc(Cc4ccc(F)cc4)o3)nn2c(C2=CCC(C)(C)CC2)c1[C@H](OC(C)(C)C)C(=O)O [Example 12, (S)-2-(tert-Butoxy)-2-(7-(4,4-dimethylcyclohex-1-en-1-yl)-2-(5-(4-fluorobenzyl)oxazol-2-yl)-5-methylpyrazolo[1,5-a]pyrimidin-6-yl)acetic acid] | 13 nM
20 | Cc1nc2cc(-n3ccc(Cc4ccccc4)n3)nn2c(N2CCC(C)(C)CC2)c1[C@H](OC(C)(C)C)C(=O)O [Example 36, (S)-2-(2-(3-Benzyl-1H-pyrazol-1-yl)-7-(4,4-dimethylpiperidin-1-yl)-5-methylpyrazolo[1,5-a]pyrimidin-6-yl)-2-(tert-butoxy)acetic acid] | 84 nM
21 | Cc1nc2cc(-c3nc4cc(Cl)ccc4n3C)nn2c(-c2cc(F)c3c(c2C)CCCO3)c1[C@H](OC(C)(C)C)C(=O)O [Example 2, (2S)-2-(tert-Butoxy)-2-(2-(5-chloro-1-methyl-1H-benzo[d]imidazol-2-yl)-7-(8-fluoro-5-methylchroman-6-yl)-5-methylpyrazolo[1,5-a]pyrimidin-6-yl)acetic acid] | 50 nM
22 | Cc1nc2cc(-c3ncc(Cc4ccc(F)cc4)s3)nn2c(C2CCC(C)(C)CC2)c1[C@H](OC(C)(C)C)C(=O)O [Example 11, (S)-2-(tert-Butoxy)-2-(7-(4,4-dimethylcyclohexyl)-2-(5-(4-fluorobenzyl)thiazol-2-yl)-5-methylpyrazolo[1,5-a]pyrimidin-6-yl)acetic acid] | 82 nM

same assay, conditions: NL-RLuc virus infecting MT-2 cells, 5 days of incubation, luciferase readout; at least 2 experiments; serum condition not given; read-out: EC50

Row | Structure (SMILES) | EC50
23 | Cc1nc2cc(N3CC(Cc4ccccc4)OC3=O)nn2c(N2CCC(C)(C)CC2)c1[C@H](OC(C)(C)C)C(=O)O (stereo partly drawn) [Example 30, (2S)-2-(2-(5-Benzyl-2-oxooxazolidin-3-yl)-7-(4,4-dimethylpiperidin-1-yl)-5-methylpyrazolo[1,5-a]pyrimidin-6-yl)-2-(tert-butoxy)acetic acid] | 16 nM
24 | Cc1nc2cc(N3CCC(Oc4ccccc4)C3=O)nn2c(N2CCC(C)(C)CC2)c1[C@H](OC(C)(C)C)C(=O)O (stereo partly drawn) [Example 32, (2S)-2-(tert-Butoxy)-2-(7-(4,4-dimethylpiperidin-1-yl)-5-methyl-2-(2-oxo-3-phenoxypyrrolidin-1-yl)pyrazolo[1,5-a]pyrimidin-6-yl)acetic acid] | 339 nM
25 | Cc1nc2cc(N3CCC(Oc4ccccc4)C3=O)nn2c(N2CCC(C)(C)CC2)c1[C@H](OC(C)(C)C)C(=O)O (stereo partly drawn) [Example 31, (2S)-2-(tert-Butoxy)-2-(7-(4,4-dimethylpiperidin-1 yl)-5-methyl-2-(2-oxo-3-phenoxypyrrolidin-1-yl)pyrazolo[1,5-a]pyrimidin-6-yl)acetic acid] | 813 nM
26 | Cc1nc2cc(N3C(=O)OCC3Cc3ccccc3)nn2c(N2CCC(C)(C)CC2)c1[C@H](OC(C)(C)C)C(=O)O (stereo partly drawn) [Example 27, (2S)-2-(2-(4-Benzyl-2-oxooxazolidin-3-yl)-7-(4,4-dimethylpiperidin-1-yl)-5-methylpyrazolo[1,5-a]pyrimidin-6-yl)-2-(tert-butoxy)acetic acid] | 478 nM
